Read-outs that look alike come from different tables or passages of the source.
Legend:
CDK5/p35 = molecular target: T1, CDK5/p35 (Homo sapiens, UniProt Q00535); experiment: CDK5/p35 kinase inhibition (33P-ATP, histone H1); format: biochemical; details: 0.15 μM ATP
T1 construct: purchased ProQinase GmbH
Experimental: CDK2/Cyclin E kinase was produced in Sf9 insect cells via baculoviral infection and purified on a NiNTA column (Qiagen). […] CDK5/p35 was purchased from ProQinase GmbH.
(§1) The reactions were stopped by adding 5 μL of 3% aq H3PO4. Aliquots were spotted onto P-81 phosphocellulose (Whatman), washed 3× with 0.5% aq H3PO4 and finally air-dried.

HCT116 (colon carcinoma) = experiment: MTT cytotoxicity assay, solid cancer cell line HCT116; format: cell-based; details: Homo sapiens, HCT-116, 72 h, three days
Experimental: (§2) The compounds were assayed using the following cell lines: G361 (malignant melanoma), MCF7 (breast adenocarcinoma), PLC/PRF/5 (liver hepatoma), PANC-1 (pancreatic carcinoma) and HCT116 (colon carcinoma). All cell lines were grown in DMEM medium supplemented with fetal bovine serum and L-glutamine and maintained at 37° C. in a humidified atmosphere with 5% CO2. For cytotoxicity assays, 4000-10000 cells were seeded into each well of a 96 well plate, allowed to stabilize for at least 16 h and then tested compounds were added at various concentrations ranging from 100 to 0.01 μM in triplicates. After three days, MTT solution (5 mg/ml; Sigma, St. Louis, USA) was added to cells and medium was replaced with DMSO after five hours. The absorbance was measured at 620 nm by employing a microplate reader. MTT assays were repeated 3 times for each drug application and untreated cells were used as reference.

[1] = test system: MCF7 (breast adenocarcinoma); experiment: MTT cytotoxicity assay, solid cancer cell line MCF7; format: cell-based; details: Homo sapiens, MCF7, 72 h, three days
Experimental: as §2

CDK2/Cyclin E = molecular target: T2, CDK2/Cyclin E (Homo sapiens, UniProt P24941); experiment: CDK2/Cyclin E kinase inhibition (33P-ATP, histone H1); format: biochemical; details: 15 μM ATP
T2 construct: made in house; host or cells: Sf9 insect cells (baculovirus)
Experimental: CDK2/Cyclin E kinase was produced in Sf9 insect cells via baculoviral infection and purified on a NiNTA column (Qiagen). The kinase reactions were assayed with 1 mg/mL histone H1 in the presence of 15 μM ATP, 0.05 μCi [γ-^33P]ATP and of the test compound in a final volume of 10 μL, all in a reaction buffer (60 mM HEPES-NaOH, pH 7.5, 3 mM MgCl2, 3 mM MnCl2, 3 μM Na-orthovanadate, 1.2 mM DTT, 2.5 μg/50 μl PEG20.000). CDK5/p35 was purchased from ProQinase GmbH. The kinase reactions were assayed with 1 mg/mL histone H1 in the presence of 0.15 μM ATP, 0.05 μCi [γ-^33P]ATP and of the test compound in a final volume of 10 μL, all in a reaction buffer (60 mM HEPES-NaOH, pH 7.5, 3 mM MgCl2, 3 mM MnCl2, 3 μM Na-orthovanadate, 1.2 mM DTT, 2.5 μg/50 μl PEG20.000).
as §1

[2] = test system: K562 (human chronic myelogenous leukaemia); experiment: MTT cytotoxicity assay, leukemic cell line K562; format: cell-based; details: three days
Text: (§3) Cytotoxicity of the compounds is the major property determining their antileukemic efficacy in vivo. One of the parameters used, as the basis for cytotoxicity assays, is the metabolic activity of viable cells. For example, a microtiter assay, which uses (3-(4,5-dimethylthiazol-2-yl)-2,5-diphenyltetrazolium bromide (MTT), is widely used to quantitate cell proliferation and cytotoxicity. This assay is widely used in drug screening programs and in chemosensitivity testing. Because only metabolically active living cells reduce MTT to correspond purple formazan dye, these assays detect viable cells exclusively. The quantity of reduced MTT corresponds to the number of vital cells in the culture.
as §2, with “following leukemic” for “following”, “K562 (human chronic myelogenous leukaemia), HL60 (human promyelocytic leukaemia), CEM (human lymphoblastoid leukaemia), THP1 (human monocytic cell line), MV4; 11 (acute myelocytic leukemia).” for “G361 (malignant melanoma), MCF7 (breast adenocarcinoma), PLC/PRF/5 (liver hepatoma), PANC-1 (pancreatic carcinoma) and HCT116 (colon carcinoma).”, “RPMI” for “DMEM”, “2000-5000” for “4000-10000”, “of” for “of a”, “8” for “16”

[3] = test system: PLC/PRF/5 (liver hepatoma); experiment: MTT cytotoxicity assay, solid cancer cell line PLC/PRF/5; format: cell-based; details: Homo sapiens, PLC-PRF-5, 72 h, three days
Experimental: as §2

[4] = test system: HL60 (human promyelocytic leukaemia); experiment: MTT cytotoxicity assay, leukemic cell line HL60; format: cell-based; details: three days
Text: as §3
as §2, with “following leukemic” for “following”, “K562 (human chronic myelogenous leukaemia), HL60 (human promyelocytic leukaemia), CEM (human lymphoblastoid leukaemia), THP1 (human monocytic cell line), MV4; 11 (acute myelocytic leukemia).” for “G361 (malignant melanoma), MCF7 (breast adenocarcinoma), PLC/PRF/5 (liver hepatoma), PANC-1 (pancreatic carcinoma) and HCT116 (colon carcinoma).”, “RPMI” for “DMEM”, “2000-5000” for “4000-10000”, “of” for “of a”, “8” for “16”

[5] = test system: THP1 (human monocytic cell line); experiment: MTT cytotoxicity assay, leukemic cell line THP1; format: cell-based; details: three days
Text: as §3
as §2, with “following leukemic” for “following”, “K562 (human chronic myelogenous leukaemia), HL60 (human promyelocytic leukaemia), CEM (human lymphoblastoid leukaemia), THP1 (human monocytic cell line), MV4; 11 (acute myelocytic leukemia).” for “G361 (malignant melanoma), MCF7 (breast adenocarcinoma), PLC/PRF/5 (liver hepatoma), PANC-1 (pancreatic carcinoma) and HCT116 (colon carcinoma).”, “RPMI” for “DMEM”, “2000-5000” for “4000-10000”, “of” for “of a”, “8” for “16”

[6] = test system: MV4;11 (acute myelocytic leukemia); experiment: MTT cytotoxicity assay, leukemic cell line MV4;11; format: cell-based; details: three days
Text: as §3
as §2, with “following leukemic” for “following”, “K562 (human chronic myelogenous leukaemia), HL60 (human promyelocytic leukaemia), CEM (human lymphoblastoid leukaemia), THP1 (human monocytic cell line), MV4; 11 (acute myelocytic leukemia).” for “G361 (malignant melanoma), MCF7 (breast adenocarcinoma), PLC/PRF/5 (liver hepatoma), PANC-1 (pancreatic carcinoma) and HCT116 (colon carcinoma).”, “RPMI” for “DMEM”, “2000-5000” for “4000-10000”, “of” for “of a”, “8” for “16”

[7] = test system: CEM (human lymphoblastoid leukaemia); experiment: MTT cytotoxicity assay, leukemic cell line CEM; format: cell-based; details: three days
Text: as §3
as §2, with “following leukemic” for “following”, “K562 (human chronic myelogenous leukaemia), HL60 (human promyelocytic leukaemia), CEM (human lymphoblastoid leukaemia), THP1 (human monocytic cell line), MV4; 11 (acute myelocytic leukemia).” for “G361 (malignant melanoma), MCF7 (breast adenocarcinoma), PLC/PRF/5 (liver hepatoma), PANC-1 (pancreatic carcinoma) and HCT116 (colon carcinoma).”, “RPMI” for “DMEM”, “2000-5000” for “4000-10000”, “of” for “of a”, “8” for “16”

[8] = test system: G361 (malignant melanoma); experiment: MTT cytotoxicity assay, solid cancer cell line G361; format: cell-based; details: Homo sapiens, G-361, 72 h, three days
Experimental: as §2

[9] = test system: PANC-1 (pancreatic carcinoma); experiment: MTT cytotoxicity assay, solid cancer cell line PANC-1; format: cell-based; details: Homo sapiens, PANC-1, 72 h, three days
Experimental: as §2

[10] = test system: HUVECs (human umbilical vein endothelial cells); experiment: HUVEC proliferation assay (crystal violet); format: cell-based; details: 72 h, read-out: Inhibition of proliferation (EC50)
Experimental: To verify that novel compounds have anti-vascularisation properties, we analyzed their influence on the proliferation and migration of HUVECs. HUVECs (human umbilical vein endothelial cells) were purchased from Promocell (Heidelberg, Germany) and cultured in endothelial cell growth medium (ECGM, Promocell, Heidelberg, Germany) containing 10% FCS (Biochrom, Berlin, Germany). Experiments were performed using cells at passage 3.
For proliferation assay, 1.5×10^3 HUVECs were cultured for 24 h. Afterwards, cells were either left untreated or treated with novel compounds for 72 h. Proliferation assay was performed using crystal violet as described previously (Koltermann et al. 2007, Cell Mol. Life Sci. 64:1715-1722).

T1 sequence (Q00535 whole entry): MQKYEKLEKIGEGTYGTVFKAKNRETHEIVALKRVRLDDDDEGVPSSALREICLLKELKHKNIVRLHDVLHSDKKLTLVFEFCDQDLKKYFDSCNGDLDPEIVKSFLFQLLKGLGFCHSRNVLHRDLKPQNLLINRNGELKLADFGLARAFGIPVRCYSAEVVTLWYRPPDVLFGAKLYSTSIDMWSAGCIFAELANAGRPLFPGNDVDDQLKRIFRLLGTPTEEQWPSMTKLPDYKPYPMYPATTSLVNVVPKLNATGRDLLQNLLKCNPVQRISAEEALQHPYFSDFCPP
T1 sequence (Q15078 whole entry partner): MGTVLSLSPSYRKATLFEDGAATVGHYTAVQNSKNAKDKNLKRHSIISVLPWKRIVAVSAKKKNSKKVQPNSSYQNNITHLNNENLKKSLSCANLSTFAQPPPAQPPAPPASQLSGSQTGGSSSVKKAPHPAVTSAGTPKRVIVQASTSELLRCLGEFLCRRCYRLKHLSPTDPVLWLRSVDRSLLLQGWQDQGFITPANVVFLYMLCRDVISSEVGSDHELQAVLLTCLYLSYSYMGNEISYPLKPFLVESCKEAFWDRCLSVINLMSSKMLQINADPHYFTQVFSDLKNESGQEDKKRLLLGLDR

SMILES: CC(C)c1n[nH]c2c(NCc3ccc(-c4ccccn4)cc3)nc(N[C@@H]3CCCC[C@H]3N)nc12 (relative stereo) [Compound 64]
- IC50 (CDK5/p35): 0.088 µM
- IC50 (HCT116 (colon carcinoma)): 0.34 µM
- IC50 [1]: 0.22 µM
- IC50 (CDK2/Cyclin E): 0.046 µM
- IC50 ([2]; Homo sapiens, K562, 72 h): 0.1 µM
- IC50 [3]: 0.14 µM
- IC50 ([4]; Homo sapiens, HL-60, 72 h): 0.09 µM
- IC50 ([5]; Homo sapiens, THP-1, 72 h): 0.04 µM
- IC50 ([6]; Homo sapiens, MV4-11, 72 h): 0.09 µM
- IC50 ([7]; Homo sapiens, 72 h): 0.05 µM
- IC50 [8]: 0.15 µM
- IC50 [9]: 0.08 µM

SMILES: CC(C)c1n[nH]c2c(NCc3ccc(-c4ccccn4)cc3)ncnc12 [Compound 2]
- IC50 (CDK5/p35): 0.183 µM
- IC50 (HCT116 (colon carcinoma)): 1.2 µM
- IC50 [3]: 0.97 µM
- IC50 ([4]; Homo sapiens, HL-60, 72 h): 0.92 µM
- IC50 ([5]; Homo sapiens, THP-1, 72 h): 0.56 µM
- IC50 ([6]; Homo sapiens, MV4-11, 72 h): 0.47 µM
- IC50 ([7]; Homo sapiens, 72 h): 0.8 µM
- IC50 [8]: 0.78 µM
- IC50 [9]: 0.46 µM

SMILES: CSc1nc(NCc2ccc(-c3ccccn3)cc2)c2[nH]nc(C(C)C)c2n1 [Compound 5]
- IC50 (CDK5/p35): 0.229 µM
- IC50 (HCT116 (colon carcinoma)): 1.3 µM
- IC50 [1]: 0.81 µM
- IC50 ([2]; Homo sapiens, K562, 72 h): 0.78 µM
- IC50 [3]: 0.7 µM
- IC50 ([4]; Homo sapiens, HL-60, 72 h): 0.86 µM
- IC50 ([5]; Homo sapiens, THP-1, 72 h): 0.32 µM
- IC50 ([6]; Homo sapiens, MV4-11, 72 h): 0.6 µM
- IC50 ([7]; Homo sapiens, 72 h): 0.94 µM
- IC50 [8]: 0.24 µM
- EC50 ([10]; Homo sapiens, HUVEC): 234 nM
- IC50 [9]: 0.65 µM

SMILES: CC(C)c1n[nH]c2c(NCc3ccc(-c4ccccn4)cc3)nc(S(C)(=O)=O)nc12 [Compound 8, 3-Isopropyl-5-methylsulfonyl-7-[4-(2-pyridyl)benzyl]amino-1(2)H-pyrazolo[4,3-d]pyridine]
- EC50 [10]: 569 nM

SMILES: CC(C)c1[nH]nc2c(NCc3ccc(-c4ccccn4)cc3)nc(N3CCOCC3)nc12 [Compound 9]
- IC50 (CDK5/p35): 0.005 µM
- IC50 (HCT116 (colon carcinoma)): 0.42 µM
- IC50 [1]: 0.16 µM
- IC50 ([2]; Homo sapiens, K562, 72 h): 0.11 µM
- IC50 [3]: 0.21 µM
- IC50 ([4]; Homo sapiens, HL-60, 72 h): 0.1 µM
- IC50 ([5]; Homo sapiens, THP-1, 72 h): 0.18 µM
- IC50 ([6]; Homo sapiens, MV4-11, 72 h): 0.36 µM
- IC50 ([7]; Homo sapiens, 72 h): 0.07 µM
- IC50 [8]: 0.25 µM
- EC50 ([10]; Homo sapiens, HUVEC): 136 nM
- IC50 [9]: 0.3 µM

SMILES: CC(C)c1[nH]nc2c(NCc3ccc(-c4ccccn4)cc3)nc(N3CCCCC3)nc12 [Compound 14]
- IC50 (CDK5/p35): 0.18 µM
- IC50 (CDK2/Cyclin E): 0.042 µM

SMILES: CC(C)c1[nH]nc2c(NCc3ccc(-c4ccccn4)cc3)nc(N3CCN(CCO)CC3)nc12 [Compound 17]
- IC50 (CDK5/p35): 0.422 µM
- IC50 (HCT116 (colon carcinoma)): 0.4 µM
- IC50 [1]: 0.19 µM
- IC50 ([2]; Homo sapiens, K562, 72 h): 0.15 µM
- IC50 [3]: 0.73 µM
- IC50 ([4]; Homo sapiens, HL-60, 72 h): 0.26 µM
- IC50 ([5]; Homo sapiens, THP-1, 72 h): 0.3 µM
- IC50 ([6]; Homo sapiens, MV4-11, 72 h): 0.37 µM
- IC50 ([7]; Homo sapiens, 72 h): 0.11 µM
- IC50 [8]: 0.24 µM
- EC50 ([10]; Homo sapiens, HUVEC): 95 nM
- IC50 [9]: 0.34 µM

SMILES: CC(C)c1[nH]nc2c(NCc3ccc(-c4ccccn4)cc3)nc(NCCCO)nc12 [Compound 29]
- IC50 (CDK5/p35): 0.0149 µM
- IC50 (CDK2/Cyclin E): 0.039 µM
- IC50 ([2]; Homo sapiens, K562, 72 h): 0.1 µM
- IC50 ([4]; Homo sapiens, HL-60, 72 h): 0.18 µM
- IC50 ([5]; Homo sapiens, THP-1, 72 h): 0.14 µM
- IC50 ([6]; Homo sapiens, MV4-11, 72 h): 0.27 µM
- IC50 ([7]; Homo sapiens, 72 h): 0.09 µM

SMILES: CC(C)c1n[nH]c2c(NCc3ccc(-c4ccccn4)cc3)nc(N[C@H](C)CCO)nc12 [Compound 31]
- IC50 [2]: 0.39 µM
- IC50 [4]: 0.24 µM
- IC50 [5]: 0.26 µM
- IC50 [6]: 0.31 µM
- IC50 [7]: 0.21 µM
